The values that follow come from ChEMBL document CHEMBL2074544 (J Lipid Res, 2000).

The target in series [1] is T1, Oct1 (Solute carrier family 22 member 1) (Mus musculus, UniProt O08966).
T1 sequence (O08966 whole entry): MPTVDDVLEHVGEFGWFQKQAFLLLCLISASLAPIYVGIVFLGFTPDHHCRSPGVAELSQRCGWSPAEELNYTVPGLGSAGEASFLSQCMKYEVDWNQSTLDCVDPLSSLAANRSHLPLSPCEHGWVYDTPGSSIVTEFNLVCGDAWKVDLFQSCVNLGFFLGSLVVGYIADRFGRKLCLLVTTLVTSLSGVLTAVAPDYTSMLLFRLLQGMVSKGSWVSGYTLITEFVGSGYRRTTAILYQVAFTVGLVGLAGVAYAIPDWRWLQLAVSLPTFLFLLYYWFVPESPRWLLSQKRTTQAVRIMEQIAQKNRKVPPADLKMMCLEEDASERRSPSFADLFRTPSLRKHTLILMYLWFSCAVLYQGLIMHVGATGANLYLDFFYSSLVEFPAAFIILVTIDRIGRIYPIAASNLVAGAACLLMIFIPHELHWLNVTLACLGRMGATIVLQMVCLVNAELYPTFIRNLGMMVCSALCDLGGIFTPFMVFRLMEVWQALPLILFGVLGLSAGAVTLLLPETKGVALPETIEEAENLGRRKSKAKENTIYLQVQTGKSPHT
As to the kind of experiment: TP_TRANSPORTER: inhibition of TEA uptake (TEA: 50 uM, NMN: 10000 uM) in Oct1-expressing BALB/3T3 cells. Further details: scale not given: the % may be the effect or the level left. It counts as functional, cell-based. The note with it: BALB/3T3 cells expressing Oct1, probe TEA (50 uM), read-out: Activity.

Series [2] addresses T1, Oct1 (Solute carrier family 22 member 1). As to the kind of experiment: TP_TRANSPORTER: inhibition of TEA uptake (TEA: 50 uM, Quinidine: 1000 uM) in Oct1-expressing BALB/3T3 cells. Type of series: functional, cell-based. Also on record: scale not given: the % may be the effect or the level left. Particulars: BALB/3T3 cells expressing Oct1, probe TEA (50 uM), read-out: Activity.

In series [3] the target is T2, Solute carrier family 22 member 1 (Mus musculus, UniProt O08966).
T2 sequence (O08966 whole entry): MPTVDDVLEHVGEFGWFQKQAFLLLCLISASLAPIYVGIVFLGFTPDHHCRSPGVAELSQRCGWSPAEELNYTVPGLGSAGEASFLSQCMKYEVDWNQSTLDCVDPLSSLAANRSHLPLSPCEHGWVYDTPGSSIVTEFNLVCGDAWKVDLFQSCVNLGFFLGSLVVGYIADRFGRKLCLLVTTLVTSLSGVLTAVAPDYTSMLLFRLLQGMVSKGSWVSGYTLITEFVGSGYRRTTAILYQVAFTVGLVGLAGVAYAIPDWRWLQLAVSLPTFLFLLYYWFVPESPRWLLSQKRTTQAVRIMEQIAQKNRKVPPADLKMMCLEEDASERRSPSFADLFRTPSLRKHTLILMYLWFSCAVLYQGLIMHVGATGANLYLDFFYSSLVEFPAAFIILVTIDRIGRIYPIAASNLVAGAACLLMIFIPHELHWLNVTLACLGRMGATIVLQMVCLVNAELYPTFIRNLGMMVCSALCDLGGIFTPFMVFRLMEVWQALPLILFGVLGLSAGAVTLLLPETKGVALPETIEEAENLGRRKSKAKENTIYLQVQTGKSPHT
As to the kind of experiment: TP_TRANSPORTER: inhibition of TEA uptake (TEA: 50 uM, TMA: 10000 uM) in Oct1-expressing BALB/3T3 cells. Also on record: scale not given: the % may be the effect or the level left. Type of series: functional, cell-based.

For series [4], the target named is T1, Oct1 (Solute carrier family 22 member 1). The experiment in a line: in vitro. The note with it: BALB/3T3 cells expressing Oct1, probe TEA (50 uM).
Substrate in series [5]: CCCC[N+](CCCC)(CCCC)CCCC
The experiment in a line: cells, lysate or membranes named.

Substrate in series [6]: C[N+](C)(C)CCO
The experiment in a line: cells, lysate or membranes named.

For `CNC(=O)c1cccnc1` [NICOTINYL METHYLAMIDE], the activity at 10000 uM in series [1] is 0%.

For `C=C[C@H]1C[N@@]2CC[C@H]1C[C@@H]2[C@@H](O)c1ccnc2ccc(OC)cc12` [QUINIDINE], the activity at 1000 µM in series [2] worked out at 0%.

In series [3], `C[N+](C)(C)C.[Cl-]` [TETRAMETHYLAMMONIUM] showed an Activity of 0%.

Consider `Cc1ncc(C[n+]2csc(CCO)c2C)c(N)n1` [THIAMINE ION], for which, in series [4], the activity at 10000 uM stood at 0%.

B1: Solute carrier family 22 member 1 (Mus musculus) (protein)
chain: MPTVDDVLEHVGEFGWFQKQAFLLLCLISASLAPIYVGIVFLGFTPDHHCRSPGVAELSQRCGWSPAEELNYTVPGLGSAGEASFLSQCMKYEVDWNQSTLDCVDPLSSLAANRSHLPLSPCEHGWVYDTPGSSIVTEFNLVCGDAWKVDLFQSCVNLGFFLGSLVVGYIADRFGRKLCLLVTTLVTSLSGVLTAVAPDYTSMLLFRLLQGMVSKGSWVSGYTLITEFVGSGYRRTTAILYQVAFTVGLVGLAGVAYAIPDWRWLQLAVSLPTFLFLLYYWFVPESPRWLLSQKRTTQAVRIMEQIAQKNRKVPPADLKMMCLEEDASERRSPSFADLFRTPSLRKHTLILMYLWFSCAVLYQGLIMHVGATGANLYLDFFYSSLVEFPAAFIILVTIDRIGRIYPIAASNLVAGAACLLMIFIPHELHWLNVTLACLGRMGATIVLQMVCLVNAELYPTFIRNLGMMVCSALCDLGGIFTPFMVFRLMEVWQALPLILFGVLGLSAGAVTLLLPETKGVALPETIEEAENLGRRKSKAKENTIYLQVQTGKSPHT
As for B1, the Km came out at 43 µM in series [5] and 42 µM in series [6].
